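Growth conditions: 96-well plates. Treatment: test compound, 48 hours, 5 concentrations. Analysis: linear interpolation between bracketing concentrations; unreached endpoints set to highest concentration. At the GI50, growth is halved. TGI is the concentration that stops growth completely.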
Columns and labels:
Experiment in all cases: NCI-60 cell line screen, 48 h
786-0 renal = tested on: 786-0 renal
A498 renal = tested on: A498 renal
A549 NSCLC = tested on: A549 NSCLC
ACHN renal = tested on: ACHN renal
BT-549 breast = tested on: BT-549 breast
CAKI-1 renal = tested on: CAKI-1 renal
CCRF-CEM leukemia = tested on: CCRF-CEM leukemia
COLO 205 colon = tested on: COLO 205 colon
DU-145 prostate = tested on: DU-145 prostate
HCC-2998 colon = tested on: HCC-2998 colon
HCT-116 colon = tested on: HCT-116 colon
HCT-15 colon = tested on: HCT-15 colon
HL-60(TB) leukemia = tested on: HL-60(TB) leukemia
HOP-62 NSCLC = tested on: HOP-62 NSCLC
HOP-92 NSCLC = tested on: HOP-92 NSCLC
HS 578T breast = tested on: HS 578T breast
HT29 colon = tested on: HT29 colon
IGROV1 ovarian = tested on: IGROV1 ovarian
K-562 leukemia = tested on: K-562 leukemia
KM12 colon = tested on: KM12 colon
LOX IMVI melanoma = tested on: LOX IMVI melanoma
M14 melanoma = tested on: M14 melanoma
MALME-3M melanoma = tested on: MALME-3M melanoma
MCF7 breast = tested on: MCF7 breast
MDA-MB-231 breast = tested on: MDA-MB-231 breast
MDA-MB-435 = tested on: MDA-MB-435
MOLT-4 leukemia = tested on: MOLT-4 leukemia
NCI-H226 lung = tested on: NCI-H226 lung
NCI-H23 lung = tested on: NCI-H23 lung
NCI-H460 lung = tested on: NCI-H460 lung
NCI-H522 lung = tested on: NCI-H522 lung
NCI/ADR-RES ovarian = tested on: NCI/ADR-RES ovarian
OVCAR-3 ovarian = tested on: OVCAR-3 ovarian
OVCAR-4 ovarian = tested on: OVCAR-4 ovarian
OVCAR-5 ovarian = tested on: OVCAR-5 ovarian
OVCAR-8 ovarian = tested on: OVCAR-8 ovarian
PC-3 prostate = tested on: PC-3 prostate
RPMI-8226 leukemia = tested on: RPMI-8226 leukemia
RXF 393 renal = tested on: RXF 393 renal
SF-268 CNS = tested on: SF-268 CNS
SF-295 CNS = tested on: SF-295 CNS
SF-539 CNS = tested on: SF-539 CNS
SK-MEL-2 melanoma = tested on: SK-MEL-2 melanoma
SK-MEL-28 melanoma = tested on: SK-MEL-28 melanoma
SK-MEL-5 melanoma = tested on: SK-MEL-5 melanoma
SK-OV-3 ovarian = tested on: SK-OV-3 ovarian
SN12C renal = tested on: SN12C renal
SNB-19 CNS = tested on: SNB-19 CNS
SR leukemia = tested on: SR leukemia
SW-620 colon = tested on: SW-620 colon
T-47D breast = tested on: T-47D breast
TK-10 renal = tested on: TK-10 renal
U251 CNS = tested on: U251 CNS
UACC-257 melanoma = tested on: UACC-257 melanoma
UACC-62 melanoma = tested on: UACC-62 melanoma
UO-31 renal = tested on: UO-31 renal
EKVX NSCLC = tested on: EKVX NSCLC

`NC(N)=NCCCCCNc1noc(Cc2c[nH]c3cc(Br)ccc23)n1` showed a GI50 (786-0 renal) of 23 µM, a TGI (786-0 renal) of 86.3 µM and a GI50 (A498 renal) greater than 100 µM. The TGI (A498 renal) was greater than 100 µM, the GI50 (A549 NSCLC) was 14.2 µM and the TGI (A549 NSCLC) was greater than 100 µM. It also gave a GI50 (ACHN renal) of 39.9 µM, a TGI (ACHN renal) greater than 100 µM and a GI50 (BT-549 breast) of 3.35 µM. The TGI (BT-549 breast) was 14.9 µM, the GI50 (CAKI-1 renal) was 66.7 µM and the TGI (CAKI-1 renal) was greater than 100 µM. The GI50 (CCRF-CEM leukemia) was 13.9 µM, the TGI (CCRF-CEM leukemia) was 39.5 µM and the GI50 (COLO 205 colon) was 9.77 µM. The TGI (COLO 205 colon) was 28.2 µM, the GI50 (DU-145 prostate) was 20.4 µM and the TGI (DU-145 prostate) was greater than 100 µM. It also gave a GI50 (HCC-2998 colon) of 6.12 µM, a TGI (HCC-2998 colon) of 23.2 µM and a GI50 (HCT-116 colon) of 9.78 µM. It also gave a TGI (HCT-116 colon) of 37 µM, a GI50 (HCT-15 colon) of 60.5 µM and a TGI (HCT-15 colon) greater than 100 µM. The GI50 (HL-60(TB) leukemia) was 7.21 µM, the TGI (HL-60(TB) leukemia) was 28.8 µM and the GI50 (HOP-62 NSCLC) was 5.84 µM. For the same compound, the TGI (HOP-62 NSCLC) was 28.4 µM, the GI50 (HOP-92 NSCLC) was 2.96 µM and the TGI (HOP-92 NSCLC) was 46.7 µM. For the same compound, the GI50 (HS 578T breast) was 9.08 µM, the TGI (HS 578T breast) was 90.2 µM and the GI50 (HT29 colon) was 19.5 µM. The TGI (HT29 colon) was greater than 100 µM, the GI50 (IGROV1 ovarian) was 4.55 µM and the TGI (IGROV1 ovarian) was 19.4 µM. For the same compound, the GI50 (K-562 leukemia) was 9.4 µM, the TGI (K-562 leukemia) was 38.6 µM and the GI50 (KM12 colon) was 3.95 µM. The TGI (KM12 colon) was 15.9 µM, the GI50 (LOX IMVI melanoma) was 10.6 µM and the TGI (LOX IMVI melanoma) was 45.2 µM. The GI50 (M14 melanoma) was 10.8 µM, the TGI (M14 melanoma) was 44.3 µM and the GI50 (MALME-3M melanoma) was 8.34 µM. It also gave a TGI (MALME-3M melanoma) of 35 µM, a GI50 (MCF7 breast) of 16.3 µM and a TGI (MCF7 breast) of 45 µM. The GI50 (MDA-MB-231 breast) was 8.05 µM, the TGI (MDA-MB-231 breast) was 30.2 µM and the GI50 (MDA-MB-435) was 19.3 µM. It also gave a TGI (MDA-MB-435) of 62.7 µM, a GI50 (MOLT-4 leukemia) of 8.12 µM and a TGI (MOLT-4 leukemia) of 36.3 µM. For the same compound, the GI50 (NCI-H226 lung) was 13.6 µM, the TGI (NCI-H226 lung) was 46.9 µM and the GI50 (NCI-H23 lung) was 8.2 µM. It also gave a TGI (NCI-H23 lung) of 28.7 µM, a GI50 (NCI-H460 lung) of 12.4 µM and a TGI (NCI-H460 lung) of 43.3 µM. For the same compound, the GI50 (NCI-H522 lung) was 13.6 µM, the TGI (NCI-H522 lung) was 46.5 µM and the GI50 (NCI/ADR-RES ovarian) was 40.4 µM. It also gave a TGI (NCI/ADR-RES ovarian) greater than 100 µM, a GI50 (OVCAR-3 ovarian) of 4.4 µM and a TGI (OVCAR-3 ovarian) of 33.5 µM. It also gave a GI50 (OVCAR-4 ovarian) of 12.2 µM, a TGI (OVCAR-4 ovarian) of 91.8 µM and a GI50 (OVCAR-5 ovarian) of 24.9 µM. For the same compound, the TGI (OVCAR-5 ovarian) was greater than 100 µM, the GI50 (OVCAR-8 ovarian) was 10.4 µM and the TGI (OVCAR-8 ovarian) was greater than 100 µM. It also gave a GI50 (PC-3 prostate) of 2.57 µM, a TGI (PC-3 prostate) of 79.6 µM and a GI50 (RPMI-8226 leukemia) of 6.78 µM. For the same compound, the TGI (RPMI-8226 leukemia) was 47.1 µM, the GI50 (RXF 393 renal) was 20.2 µM and the TGI (RXF 393 renal) was greater than 100 µM. The GI50 (SF-268 CNS) was 3.54 µM, the TGI (SF-268 CNS) was 27.8 µM and the GI50 (SF-295 CNS) was 17.8 µM. The TGI (SF-295 CNS) was 56.6 µM, the GI50 (SF-539 CNS) was 12.5 µM and the TGI (SF-539 CNS) was 29.5 µM. For the same compound, the GI50 (SK-MEL-2 melanoma) was 22.8 µM, the TGI (SK-MEL-2 melanoma) was 57.8 µM and the GI50 (SK-MEL-28 melanoma) was 16.3 µM. It also gave a TGI (SK-MEL-28 melanoma) of 36.7 µM, a GI50 (SK-MEL-5 melanoma) of 4.52 µM and a TGI (SK-MEL-5 melanoma) of 16.2 µM. The GI50 (SK-OV-3 ovarian) was 24 µM, the TGI (SK-OV-3 ovarian) was greater than 100 µM and the GI50 (SN12C renal) was 3.87 µM. For the same compound, the TGI (SN12C renal) was 18.8 µM, the GI50 (SNB-19 CNS) was 3.62 µM and the TGI (SNB-19 CNS) was 20.4 µM. For the same compound, the GI50 (SR leukemia) was 13.8 µM, the TGI (SR leukemia) was 40 µM and the GI50 (SW-620 colon) was 20 µM. The TGI (SW-620 colon) was greater than 100 µM, the GI50 (T-47D breast) was 6.04 µM and the TGI (T-47D breast) was 32.3 µM. For the same compound, the GI50 (TK-10 renal) was 49.4 µM, the TGI (TK-10 renal) was greater than 100 µM and the GI50 (U251 CNS) was 2.78 µM. For the same compound, the TGI (U251 CNS) was 14.9 µM, the GI50 (UACC-257 melanoma) was 14.6 µM and the TGI (UACC-257 melanoma) was 80.3 µM. The GI50 (UACC-62 melanoma) was 7.48 µM, the TGI (UACC-62 melanoma) was 28.1 µM and the GI50 (UO-31 renal) was 20.2 µM. For the same compound, the TGI (UO-31 renal) was greater than 100 µM.

For `COc1cc(C2SCC(=O)N2c2ccc(-c3ccc(-n4c(-c5ccccc5)nc5ccccc5c4=O)cc3)cc2)cc(OC)c1OC` (stereo not given), the TGI (786-0 renal) was 47.6 µM, the TGI (A498 renal) was greater than 100 µM and the TGI (A549 NSCLC) was greater than 100 µM. For the same compound, the TGI (ACHN renal) was greater than 100 µM, the TGI (BT-549 breast) was 55.4 µM and the TGI (CAKI-1 renal) was 45.8 µM. The TGI (CCRF-CEM leukemia) was greater than 100 µM, the TGI (COLO 205 colon) was greater than 100 µM and the TGI (DU-145 prostate) was greater than 100 µM. It also gave a TGI (EKVX NSCLC) greater than 100 µM, a TGI (HCC-2998 colon) greater than 100 µM and a TGI (HCT-116 colon) of 35.1 µM. The TGI (HCT-15 colon) was greater than 100 µM, the TGI (HL-60(TB) leukemia) was greater than 100 µM and the TGI (HOP-62 NSCLC) was 85.5 µM. The TGI (HOP-92 NSCLC) was greater than 100 µM, the TGI (HS 578T breast) was greater than 100 µM and the TGI (HT29 colon) was greater than 100 µM. For the same compound, the TGI (IGROV1 ovarian) was greater than 100 µM, the TGI (K-562 leukemia) was greater than 100 µM and the TGI (KM12 colon) was 62.9 µM. The TGI (M14 melanoma) was greater than 100 µM, the TGI (MALME-3M melanoma) was greater than 100 µM and the TGI (MCF7 breast) was greater than 100 µM. It also gave a TGI (MDA-MB-231 breast) greater than 100 µM, a TGI (MDA-MB-435) greater than 100 µM and a TGI (MOLT-4 leukemia) greater than 100 µM. It also gave a TGI (NCI-H226 lung) greater than 100 µM, a TGI (NCI-H23 lung) greater than 100 µM and a TGI (NCI-H460 lung) greater than 100 µM. It also gave a TGI (NCI-H522 lung) of 62.3 µM, a TGI (NCI/ADR-RES ovarian) greater than 100 µM and a TGI (OVCAR-3 ovarian) of 80.9 µM. For the same compound, the TGI (OVCAR-4 ovarian) was greater than 100 µM, the TGI (OVCAR-5 ovarian) was greater than 100 µM and the TGI (OVCAR-8 ovarian) was greater than 100 µM. For the same compound, the TGI (PC-3 prostate) was 41.5 µM, the TGI (RPMI-8226 leukemia) was greater than 100 µM and the TGI (SF-268 CNS) was greater than 100 µM. The TGI (SF-539 CNS) was greater than 100 µM, the TGI (SK-MEL-2 melanoma) was 56.5 µM and the TGI (SK-MEL-28 melanoma) was greater than 100 µM. It also gave a TGI (SK-MEL-5 melanoma) greater than 100 µM, a TGI (SK-OV-3 ovarian) greater than 100 µM and a TGI (SN12C renal) greater than 100 µM. For the same compound, the TGI (SNB-19 CNS) was greater than 100 µM, the TGI (SR leukemia) was greater than 100 µM and the TGI (SW-620 colon) was greater than 100 µM. The TGI (T-47D breast) was greater than 100 µM, the TGI (TK-10 renal) was greater than 100 µM and the TGI (U251 CNS) was greater than 100 µM. It also gave a TGI (UACC-62 melanoma) greater than 100 µM and a TGI (UO-31 renal) greater than 100 µM.

Reference: PubChem BioAssay (NCI)
